From patent US20260102427A1, “COMPOSITIONS OF NANOPARTICLES FOR TREATMENT OF NEUROPATHIC PAIN” (NANOBIOTIX S.A., priority 2022, published 2026)

Columns and labels:
Assay type in all cases: in vivo, rat
[1] = system: oxaliplatin-induced mechanical allodynia; assay: Example 5: mechanical allodynia (von Frey PWT) in oxaliplatin chemotherapy-induced peripheral neuropathy model; details: Pregabalin 30 mg/kg p.o. each test day, tested 2 hr post dose
Method: The aim of this study was to investigate the effect of a single intraplantar treatment with Nanoparticles from Example 1 (NP1B) at the dose of 11 g/L, Nanoparticles from Example 2 (NP2B) at 53 g/L, Nanoparticles from Example 3 (NP20B) at 57 g/L, and Nanoparticles from Example 4 (NP20A) at 59 g/L, each in 20 μL of injection volume, on the mechanical allodynia (as assessed using von Frey) that occurs following systemic administration of oxaliplatin in the rat.
Experimental subjects: Seventy-two (72) adult male Sprague-Dawley rats were used for this study. […]
Static mechanical (tactile) allodynia evaluation: Measurement of paw withdrawal threshold (PWT) was achieved using calibrated (force; g) von-Frey monofilaments (Touch-Test Sensory Evaluator; Scientific Marketing Associates) applied to the plantar surface of the hind paw. Withdrawal threshold was determined by increasing and decreasing stimulus intensity and estimated using Dixon's up-down method. […]
Baseline readings for latency to withdrawal (sec) were assessed on three consecutive days (Day −3, Day −2 and Day −1). […]
Mechanical allodynia was subsequently re-assessed 2-3 times per week following injection, out to D26 post-oxaliplatin. […]

[2] = system: STZ-induced mechanical allodynia; assay: Example 7: mechanical allodynia (von Frey PWT) in streptozotocin diabetes-induced peripheral neuropathy model; details: Pregabalin 30 mg/kg p.o. 2 hr prior to each Von Frey test
Method: The aim of the study is to investigate the effect of a single intraplantar treatment with Nanoparticles from Example 3 at the doses of 117 g/L in 20 μL of injection volume, 58 g/L in 20 μL of injection volume, and 18 g/L in 10 μL of injection volume on the mechanical allodynia (as assessed using von Frey) that occurs following systemic administration of Streptozocin in the rat.
Experimental subjects: Sixty-six (66) adult male Sprague-Dawley rats (180-210 g) were used for this study. […]
Confirmation of hyperglycaemia: On Day 7 (D7) one drop of tail vein blood was obtained by a needle prick on the conscious rats. The blood glucose levels were measured in one drop of blood using an Exactive Vital (MictoTech Medical) blood glucose monitor. […]
Static mechanical (tactile) allodynia: Measurement of withdrawal threshold was achieved using calibrated (force; g) von-Frey monofilaments (Touch-Test Sensory Evaluator; Scientific Marketing Associates) applied to the plantar surface of the hind paw. Withdrawal threshold was determined by increasing and decreasing stimulus intensity and estimated using Dixon's up-down method (Dixon, 1980; Chaplan et al., 1994). […]
Von Frey readings are taken at baseline (pre-STZ), at D9 and at D11 post-STZ (neuropathic/allodynia baseline) and 2 hours post dose on D14. Von-Frey readings are repeated twice per week up to 3 weeks post-STZ (1 week post nanoparticles dosing). […]

[3] = system: oxaliplatin-induced mechanical allodynia; assay: Example 6: mechanical allodynia (von Frey PWT) in oxaliplatin CIPN model, dose effect, left (treated) vs right (vehicle) paw; details: Pregabalin 30 mg/kg p.o. each test day; both left and right paws
Description: Animals were allowed to recover from transportation for at least one week before commencing experiments.
Data is presented as mean±SEM.

## CC(C)C[C@H](CN)CC(=O)O [Pregabalin]
[1]
  PWT, allodynic response (positive control): rescued the allodynic response and recovered the PWT to the healthy baseline levels
[2]
  PWT levels compared to “STZ/Vehicle” group: significantly different from the “STZ/Vehicle” group on all days tested
[3]
  PWT levels compared to ‘Vehicle/Vehicle’ group (not neuropathic): not significantly different from the ‘Vehicle/Vehicle’ group (not neuropathic) on any of the test days
